Test results from patent US10294290B2, “Polypeptides derived from calcitonin receptors and methods of use” (The Research Foundation For The State University of New York, priority 2010, dated 2019).
[ ]: non-standard residue; d: D form. pGlu = O=C1CC[C@@H](C(=O)O)N1

What was measured:
[1] = system: ovariectomized (OVX) rats; assay: Micro-CT of cortical bone from femoral midshafts; format: in vivo, Sprague Dawley rats; conditions: 15 μM (1 mL) intraperitoneal, five times per week for five weeks, vs vehicle, p<0.05 ANCOVA
Protocol: We performed a micro-CT analysis of cortical bone from the femoral midshafts of ovariectomized (OVX) rats treated with 50% DMSO (OVX Vehicle) or 15 μM rat CRP (OVX 15 μM) Sprague Dawley rats (n=12/group) were ovariectomized at 6 months of age and allowed to lose bone for one month prior to treatment. They were then administered vehicle or 15 μM CRP (1 mL), via intraperitoneal injection, five times per week for five weeks. The animals were then sacrificed and their femora were harvested. The femora were scanned using microCT (Scanco uCT40) and 1.8 mm-long mid-diaphyseal regions of interest were analyzed.

[2] = system: immortalized human fetal osteoblast cell line, hFOB 1.19; assay: Bone matrix formation, Alizarin Red staining, differentiated osteoblasts; format: cell-based; conditions: for calcium deposits (Alizarin dye, fluorescent images): 12.5 μM
Protocol: The effect of CRP on differentiated osteoblasts was analyzed in an immortalized human fetal osteoblast cell line, hFOB 1.19. hFOB cells were incubated for 48 hours in increasing concentrations of CRP (4.6 μM, 9.2 μM, 13.8 μM and 18.4 μM). Bone matrix formation was assayed using a Millipore Osteogenesis Quantitation kit as described above. Phase contrast and fluorescent images of the Alizarin Red stained cells were acquired using an Olympus-IMT microscope according to the manufacturer's (Millipore) specifications. […] Increased bone matrix deposition was also detectable by fluorescence microscopy. Non-amidated CRP had no effect on bone matrix formation.
The sequence specificity of the effect of CRP on bone matrix formation was evaluated using the scrambled peptide, {pGln}NFWQWWIQARKQ (SEQ ID NO:51), which was amidated at the C-terminus. hFOB cells were treated as described above with 18.4 μM of the scrambled peptide, and bone matrix formation was assayed with the Millipore Osteogenesis Quantitation kit as described above.
In cell culture, we also studied the effect of amino acid substitutions in CRP on the formation of bone matrix. hFOB cells were treated with human CRP (KRQWAQFKIQWNQR; SEQ ID NO:42) and, separately, mouse CRP (KRQWTQFKIQWSQR; SEQ ID NO:43) before staining with Alizarin dye to identify the matrix that is formed. Fluorescent images were acquired using an Olympus-IMP microsope.

Substance: rat CRP: rat calcitonin receptor-derived polypeptide (rat homologue, SEQ ID NO:47, shown in FIG. 2) (KRQWAQFKIQWSHRWGRR; listed as Rattus norvegicus)
- average periosteal surface [1]: significantly greater
- average periosteal volume [1]: significantly greater
- average polar moment of inertia [1]: significantly greater
- maximum principal moment of inertia [1]: significantly greater
- minimum principal moment of inertia [1]: significantly greater

Substance: KRQWTQFKIQWSQR (listed as Mus sp.) [mCRP]
- calcium deposits (Alizarin dye, fluorescent images) [2]: produced calcium deposits

Substance: {pGln}NFWQWWIQARKQ ([pGlu]NFWQWWIQARKQ-NH2; SMILES CC[C@H](C)[C@H](NC(=O)[C@H](Cc1c[nH]c2ccccc12)NC(=O)[C@H](Cc1c[nH]c2ccccc12)NC(=O)[C@H](CCC(N)=O)NC(=O)[C@H](Cc1c[nH]c2ccccc12)NC(=O)[C@H](Cc1ccccc1)NC(=O)[C@H](CC(N)=O)NC(=O)[C@@H]1CCC(=O)N1)C(=O)N[C@@H](CCC(N)=O)C(=O)N[C@@H](C)C(=O)N[C@@H](CCCNC(=N)N)C(=O)N[C@@H](CCCCN)C(=O)N[C@@H](CCC(N)=O)C(N)=O) [scrambled peptide, scrambled control peptide, same amino acids as CRP in scrambled order, reference compound]
- bone matrix formation ([2]; 18.4 μM): did not induce bone matrix formation

Substance: KRQWAQFKIQWNQR (listed as Homo sapiens) [hCRP]
- calcium deposits (Alizarin dye, fluorescent images) [2]: produced calcium deposits
